Data taken from PMC7732128, “Regulation of gene transcription by thyroid hormone receptor β agonists in clinical development for the treatment of non-alcoholic steatohepatitis (NASH)” (PLoS ONE, 2020).

Legend:
[1] = system: THR (liver Cpt1a, Dio1, Me1, Thrsp RNA); experiment: High-fat diet fed rat study: liver gene expression; format: in vivo; conditions: HFD rats
Procedure: Eighty-four male Sprague Dawley rats, approximately 8 to 11 weeks of age, were fed with either a normal diet, ND (D12450K: 10 kcal% fat, no sucrose), or high-fat diet, HFD (D12109C: 40 kcal% fat, 1.25 gm% cholesterol, 0.5 gm% sodium cholate, 12.5 gm% sucrose). After 12 days of diet consumption, baseline serum total cholesterol and low-density lipoprotein cholesterol (LDL-C) levels were measured with the cobas 6000 c501 Chemistry Analyzer (Roche) to confirm hypercholesterolemia in the HFD fed rats. Animals were then randomized into treatment groups.
Serum total cholesterol and LDL-C levels were determined as described above. […] Caudate lobes of the liver were used for analysis of hepatic total cholesterol (Abcam, ab65390) and triglyceride levels (Abcam, ab65336) via enzyme-linked immunosorbent assay. Right lateral lobes were stored in RNAlater (Invitrogen, AM7020) at -70°C until homogenization with the Scientz-48 TissueLyser LT for downstream gene expression analysis. RNA extraction was performed at WuXi AppTec (Hong Kong) Limited (China) with the RNeasy Mini Kit (Qiagen, 74106) and RNA concentration and quality was determined using the Nanodrop 2000 (Thermo Scientific); additional quality control was assessed with agarose gel electrophoresis. One μg total RNA from each sample was then reverse-transcribed using the High Capacity cDNA Reverse Transcription kit (Applied Biosystems, 4368814) and the resulting cDNA was diluted 1:5 with nuclease-free, distilled water. Gene expression was measured using TaqMan Fast Advanced Master Mix and the following TaqMan Gene Expression assays: Actb (Rn00667869_m1), Cpt1a (Rn00580702_m1), Dio1 (Rn00572183_m1), Me1 (Rn00561502_m1), Rplp1 (Rn03467157_gH), and Thrsp (Rn01511034_m1). Actb and Rplp1 served as control housekeeping genes. Ten μL reactions were run on the qTOWER³ 84. Relative quantification (RQ) of gene expression was calculated via the 2^−ΔΔCt method and statistical analysis was performed in GraphPad Prism 8.0 and Microsoft Excel.

[2] = biological target: T1, THRα (in complex with RXR) (Homo sapiens, UniProt P10827); experiment: Luciferase reporter assay in HEK293T cells, THRα; format: cell-based; conditions: read-out: THRα EC50 Mean ± SEM
T1 construct: expressed in transfected cells; host or cells: HEK293T
T1 sequence (P10827 1-410 isoform P10827-2): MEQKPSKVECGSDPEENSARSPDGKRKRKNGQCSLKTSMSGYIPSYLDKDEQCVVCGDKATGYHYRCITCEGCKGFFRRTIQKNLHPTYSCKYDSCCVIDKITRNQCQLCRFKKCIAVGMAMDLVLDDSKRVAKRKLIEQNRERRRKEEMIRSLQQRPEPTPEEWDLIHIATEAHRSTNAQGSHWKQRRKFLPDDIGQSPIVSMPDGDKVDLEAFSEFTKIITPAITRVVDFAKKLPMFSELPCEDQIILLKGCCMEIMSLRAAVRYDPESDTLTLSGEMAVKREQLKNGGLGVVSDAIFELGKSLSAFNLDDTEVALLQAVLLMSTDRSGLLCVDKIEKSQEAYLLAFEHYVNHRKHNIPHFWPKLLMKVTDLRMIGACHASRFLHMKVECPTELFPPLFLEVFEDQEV
T1 sequence (P19793 1-462 partner): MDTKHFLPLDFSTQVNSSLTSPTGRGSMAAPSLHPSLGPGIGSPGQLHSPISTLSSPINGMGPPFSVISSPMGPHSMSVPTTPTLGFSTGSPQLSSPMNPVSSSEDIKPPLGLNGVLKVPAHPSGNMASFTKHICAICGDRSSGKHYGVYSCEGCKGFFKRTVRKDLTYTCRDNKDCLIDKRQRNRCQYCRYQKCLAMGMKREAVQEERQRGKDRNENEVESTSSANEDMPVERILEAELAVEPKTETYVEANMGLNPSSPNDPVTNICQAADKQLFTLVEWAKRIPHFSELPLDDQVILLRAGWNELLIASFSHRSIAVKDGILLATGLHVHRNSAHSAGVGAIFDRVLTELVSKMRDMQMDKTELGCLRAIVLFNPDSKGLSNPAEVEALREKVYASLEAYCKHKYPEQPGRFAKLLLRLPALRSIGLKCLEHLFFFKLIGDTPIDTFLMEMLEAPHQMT
Procedure: After initial characterization of in vitro THR-binding/activation, compounds were tested for their ability to bind and activate THRα or β (in complex with RXR), inducing gene expression, in cultured human-derived cells. To this end, HEK293T cells were transiently transfected with a firefly luciferase reporter under control of a TRE (TRE-Luc), a RXR expression plasmid, and either a THRα or β expression plasmid. This assay was performed at Pharmaron Beijing Co., Ltd. (China).
Cells were seeded into 6-well culture plates at 7.0 x 10^5 cells/well and cultured in Dulbecco’s Modified Eagle’s Medium (DMEM; Hyclone, SH30022) supplemented with 10% fetal bovine serum (FBS; Gibco, 16000–044) and 1% Penicillin-Streptomycin (P/S; Corning, 30-002-CI) at 37°C and 5% CO2. […] After overnight incubation, the transfected cells were re-seeded at 1.0 x 10^4 cells/well into 384-well microplates and incubated for an additional 5 to 6 hrs. Test compounds were serially diluted in DMSO and added to the cells (0.1% final DMSO concentration). After approximately 18 to 24 hrs, the culture plates were equilibrated to RT, 30 μL ONE-Glo reagent (Promega, E6120) was added to each well, and luminescence was measured on an EnSpire plate reader (Perkin Elmer). The results were then quantified by calculating percent agonism and dose-response curves were fitted by non-linear regression with variable slope. […]

THRβ over THRα = conditions: from ligand-binding affinities (Kd or Ki); cited from earlier work
cholesterol-fed rat = system: cholesterol-fed rat; set-up: method as in PMID 18975928; conditions: cited from earlier work
[3] = set-up: method as in doi:10.1016/s0735-1097(16)31933-7; conditions: 14-day treatment, ≥ 5 mg; cited from earlier work
[4] = 4 hrs after 5.0 or 1.5 mg/kg, vs vehicle

CC(C)c1cc(Oc2c(Cl)cc(-n3nc(C#N)c(=O)[nH]c3=O)cc2Cl)n[nH]c1=O [MGL-3196, 2-[3,5-dichloro-4-(5-isopropyl-6-oxo-1,6-dihydropyridazin-3-yloxy)phenyl]-3,5-dioxo-2,3,4,5-tetrahydro[1,2,4]triazine-6-carbonitrile]
liver Cpt1a, Dio1 and Thrsp RNA levels [1, 4]: activated the transcription of Cpt1a, Dio1, and Thrsp in a dose-dependent manner | liver Me1 RNA level [1, 4]: no significant increase | increases in liver Cpt1a and Thrsp RNA levels ([1]; 24 hrs after 5.0 or 1.5 mg/kg): dampened | liver Dio1 and Me1 transcription ([1]; 24 hrs after 5.0 or 1.5 mg/kg, vs vehicle): significantly increased | increase in liver Dio1 expression between doses ([1]; between 1.5 and 5 mg/kg): 1.3 fold

Cc1cc(OCP(=O)(O)O)cc(C)c1Cc1ccc(O)c(C(C)C)c1 [VK2809A]
EC50 [2]: 297 ± 41.4 nM | selectivity for THRβ over THRα (THRβ over THRα): 15.8 fold

Cc1cc(OCP2(=O)OCC[C@@H](c3cccc(Cl)c3)O2)cc(C)c1Cc1ccc(O)c(C(C)C)c1 (some centres unmarked) [VK2809]
reduction in total cholesterol (cholesterol-fed rat; single dose 0.5 mg/kg): 36% | decrease in total cholesterol (cholesterol-fed rat; single dose 3.0 mg/kg): ≤ 55% | EC50 [2]: 54.8 ± 11.7 nM | reduction in LDL-C [3]: up to 41.2%
